{"source": "paper PMC4206749", "about": "(Toxicological Research, 2014)", "key": {"[1]": {"test_system": "Salmonella typhimurium strain TA98", "assay": "Bacterial reverse mutation assay", "format": "cell-based"}, "[2]": {"test_system": "CHL cells (Chinese hamster lung fibroblast cell line)", "assay": "In vitro chromosomal aberration assay", "format": "cell-based", "conditions": "6~18 hr; for Gap / Numerical aberrations, PP + ER / Structural aberrations, Chromatid type, ctb / Structural aberrations, Chromatid type, cte / Structural aberrations, Chromosome type, csb / Structural aberrations, Chromosome type, cse / Structural aberrations, Others: 200 cells"}}, "data": [{"molecule": "Oc1ccc(-c2ccc3cc(O)ccc3c2)c(O)c1", "note": "[HS-1793, 4-(6-hydroxy-2-naphthyl)-1,3-benzenediol]", "values": [{"measurement": "Number of reverse mutants/plate (Mean ± SD)", "setting": "[1]; TA98, with S9 activation, 78.1 μg/plate", "result": "40 ± 4", "unit": "reverse mutants/plate"}, {"measurement": "Number of reverse mutants/plate (Mean ± SD)", "setting": "[1]; TA98, with S9 activation, 312.5 μg/plate", "result": "43 ± 8", "unit": "reverse mutants/plate"}, {"measurement": "Number of reverse mutants/plate (Mean ± SD)", "setting": "[1]; TA98, with S9 activation, 625 μg/plate", "result": "42 ± 4", "unit": "reverse mutants/plate"}, {"measurement": "Number of reverse mutants/plate (Mean ± SD)", "setting": "[1]; TA98, with S9 activation, 1,250 μg/plate", "result": "43 ± 4", "unit": "reverse mutants/plate"}, {"measurement": "Number of reverse mutants/plate (Mean ± SD)", "setting": "[1]; TA98, with S9 activation, 2,500 μg/plate", "result": "44 ± 4", "unit": "reverse mutants/plate"}, {"measurement": "Number of reverse mutants/plate (Mean ± SD)", "setting": "[1]; TA98, with S9 activation, 5,000 μg/plate", "result": "33 ± 2", "unit": "reverse mutants/plate"}, {"measurement": "Number of reverse mutants/plate (Mean ± SD)", "setting": "[1]; TA98, without S9 activation, 78.1 μg/plate", "result": "29 ± 2", "unit": "reverse mutants/plate"}, {"measurement": "Number of reverse mutants/plate (Mean ± SD)", "setting": "[1]; TA98, without S9 activation, 156.3 μg/plate", "result": "27 ± 2", "unit": "reverse mutants/plate"}, {"measurement": "Number of reverse mutants/plate (Mean ± SD)", "setting": "[1]; TA98, without S9 activation, 312.5 μg/plate", "result": "30 ± 4", "unit": "reverse mutants/plate"}, {"measurement": "Number of reverse mutants/plate (Mean ± SD)", "setting": "[1]; TA98, without S9 activation, 625 μg/plate", "result": "26 ± 3", "unit": "reverse mutants/plate"}, {"measurement": "Number of reverse mutants/plate (Mean ± SD)", "setting": "[1]; TA98, without S9 activation, 1,250 μg/plate", "result": "25 ± 2", "unit": "reverse mutants/plate"}, {"measurement": "Number of reverse mutants/plate (Mean ± SD)", "setting": "[1]; TA98, without S9 activation, 2,500 μg/plate", "result": "28 ± 1", "unit": "reverse mutants/plate"}, {"measurement": "Number of reverse mutants/plate (Mean ± SD)", "setting": "[1]; TA98, without S9 activation, 5,000 μg/plate", "result": "27 ± 3", "unit": "reverse mutants/plate"}, {"measurement": "Growth index", "setting": "[2]; S9 (+), 6.25 μg/ml", "result": 98, "unit": "%"}, {"measurement": "Total frequency (+) Gap", "setting": "[2]; S9 (+), 6.25 μg/ml", "result": 1.5, "unit": "%"}, {"measurement": "Total frequency (−) Gap", "setting": "[2]; S9 (+), 6.25 μg/ml", "result": 1, "unit": "%"}, {"measurement": "Gap", "setting": "[2]; S9 (+), 6.25 μg/ml", "result": 1}, {"measurement": "Numerical aberrations, PP + ER", "setting": "[2]; S9 (+), 6.25 μg/ml", "result": 0}, {"measurement": "Structural aberrations, Chromatid type, ctb", "setting": "[2]; S9 (+), 6.25 μg/ml", "result": 1}, {"measurement": "Structural aberrations, Chromatid type, cte", "setting": "[2]; S9 (+), 6.25 μg/ml", "result": 1}, {"measurement": "Structural aberrations, Chromosome type, csb", "setting": "[2]; S9 (+), 6.25 μg/ml", "result": 0}, {"measurement": "Structural aberrations, Chromosome type, cse", "setting": "[2]; S9 (+), 6.25 μg/ml", "result": 0}, {"measurement": "Structural aberrations, Others", "setting": "[2]; S9 (+), 6.25 μg/ml", "result": 0}, {"measurement": "Growth index", "setting": "[2]; S9 (+), 12.5 μg/ml", "result": 95, "unit": "%"}, {"measurement": "Total frequency (+) Gap", "setting": "[2]; S9 (+), 12.5 μg/ml", "result": 1, "unit": "%"}, {"measurement": "Total frequency (−) Gap", "setting": "[2]; S9 (+), 12.5 μg/ml", "result": 0.5, "unit": "%"}, {"measurement": "Gap", "setting": "[2]; S9 (+), 12.5 μg/ml", "result": 1}, {"measurement": "Numerical aberrations, PP + ER", "setting": "[2]; S9 (+), 12.5 μg/ml", "result": 0}, {"measurement": "Structural aberrations, Chromatid type, ctb", "setting": "[2]; S9 (+), 12.5 μg/ml", "result": 0}, {"measurement": "Structural aberrations, Chromatid type, cte", "setting": "[2]; S9 (+), 12.5 μg/ml", "result": 1}, {"measurement": "Structural aberrations, Chromosome type, csb", "setting": "[2]; S9 (+), 12.5 μg/ml", "result": 0}, {"measurement": "Structural aberrations, Chromosome type, cse", "setting": "[2]; S9 (+), 12.5 μg/ml", "result": 0}, {"measurement": "Structural aberrations, Others", "setting": "[2]; S9 (+), 12.5 μg/ml", "result": 0}, {"measurement": "Growth index", "setting": "[2]; S9 (+), 25 μg/ml", "result": 89, "unit": "%"}, {"measurement": "Total frequency (+) Gap", "setting": "[2]; S9 (+), 25 μg/ml", "result": 3.5, "unit": "%"}, {"measurement": "Total frequency (−) Gap", "setting": "[2]; S9 (+), 25 μg/ml", "result": 2.5, "unit": "%"}, {"measurement": "Gap", "setting": "[2]; S9 (+), 25 μg/ml", "result": 2}, {"measurement": "Numerical aberrations, PP + ER", "setting": "[2]; S9 (+), 25 μg/ml", "result": 0}, {"measurement": "Structural aberrations, Chromatid type, ctb", "setting": "[2]; S9 (+), 25 μg/ml", "result": 2}, {"measurement": "Structural aberrations, Chromatid type, cte", "setting": "[2]; S9 (+), 25 μg/ml", "result": 3}, {"measurement": "Structural aberrations, Chromosome type, csb", "setting": "[2]; S9 (+), 25 μg/ml", "result": 0}, {"measurement": "Structural aberrations, Chromosome type, cse", "setting": "[2]; S9 (+), 25 μg/ml", "result": 0}, {"measurement": "Structural aberrations, Others", "setting": "[2]; S9 (+), 25 μg/ml", "result": 0}, {"measurement": "Total frequency (+) Gap", "setting": "[2]; S9 (+), 50 μg/ml", "result": 3, "unit": "%"}, {"measurement": "Total frequency (−) Gap", "setting": "[2]; S9 (+), 50 μg/ml", "result": 2.5, "unit": "%"}, {"measurement": "Gap", "setting": "[2]; S9 (+), 50 μg/ml", "result": 1}, {"measurement": "Numerical aberrations, PP + ER", "setting": "[2]; S9 (+), 50 μg/ml", "result": 0}, {"measurement": "Structural aberrations, Chromatid type, ctb", "setting": "[2]; S9 (+), 50 μg/ml", "result": 3}, {"measurement": "Structural aberrations, Chromosome type, csb", "setting": "[2]; S9 (+), 50 μg/ml", "result": 0}, {"measurement": "Structural aberrations, Chromosome type, cse", "setting": "[2]; S9 (+), 50 μg/ml", "result": 0}, {"measurement": "Structural aberrations, Others", "setting": "[2]; S9 (+), 50 μg/ml", "result": 0}, {"measurement": "Growth index", "setting": "[2]; S9 (+), 100 μg/ml", "result": 71, "unit": "%"}, {"measurement": "Total frequency (+) Gap", "setting": "[2]; S9 (+), 100 μg/ml", "result": 1.5, "unit": "%"}, {"measurement": "Total frequency (−) Gap", "setting": "[2]; S9 (+), 100 μg/ml", "result": 0.5, "unit": "%"}, {"measurement": "Gap", "setting": "[2]; S9 (+), 100 μg/ml", "result": 2}, {"measurement": "Numerical aberrations, PP + ER", "setting": "[2]; S9 (+), 100 μg/ml", "result": 0}, {"measurement": "Structural aberrations, Chromatid type, ctb", "setting": "[2]; S9 (+), 100 μg/ml", "result": 0}, {"measurement": "Structural aberrations, Chromatid type, cte", "setting": "[2]; S9 (+), 100 μg/ml", "result": 1}, {"measurement": "Structural aberrations, Chromosome type, csb", "setting": "[2]; S9 (+), 100 μg/ml", "result": 0}, {"measurement": "Structural aberrations, Chromosome type, cse", "setting": "[2]; S9 (+), 100 μg/ml", "result": 0}, {"measurement": "Structural aberrations, Others", "setting": "[2]; S9 (+), 100 μg/ml", "result": 0}, {"measurement": "Growth index", "setting": "[2]; S9 (−), 6.25 μg/ml", "result": 98, "unit": "%"}, {"measurement": "Total frequency (+) Gap", "setting": "[2]; S9 (−), 6.25 μg/ml", "result": 1.5, "unit": "%"}, {"measurement": "Total frequency (−) Gap", "setting": "[2]; S9 (−), 6.25 μg/ml", "result": 1, "unit": "%"}, {"measurement": "Gap", "setting": "[2]; S9 (−), 6.25 μg/ml", "result": 1}, {"measurement": "Numerical aberrations, PP + ER", "setting": "[2]; S9 (−), 6.25 μg/ml", "result": 0}, {"measurement": "Structural aberrations, Chromatid type, ctb", "setting": "[2]; S9 (−), 6.25 μg/ml", "result": 0}, {"measurement": "Structural aberrations, Chromatid type, cte", "setting": "[2]; S9 (−), 6.25 μg/ml", "result": 2}, {"measurement": "Structural aberrations, Chromosome type, csb", "setting": "[2]; S9 (−), 6.25 μg/ml", "result": 0}, {"measurement": "Structural aberrations, Chromosome type, cse", "setting": "[2]; S9 (−), 6.25 μg/ml", "result": 0}, {"measurement": "Structural aberrations, Others", "setting": "[2]; S9 (−), 6.25 μg/ml", "result": 0}, {"measurement": "Growth index", "setting": "[2]; S9 (−), 12.5 μg/ml", "result": 90, "unit": "%"}, {"measurement": "Total frequency (+) Gap", "setting": "[2]; S9 (−), 12.5 μg/ml", "result": 2, "unit": "%"}, {"measurement": "Total frequency (−) Gap", "setting": "[2]; S9 (−), 12.5 μg/ml", "result": 1, "unit": "%"}, {"measurement": "Gap", "setting": "[2]; S9 (−), 12.5 μg/ml", "result": 2}, {"measurement": "Numerical aberrations, PP + ER", "setting": "[2]; S9 (−), 12.5 μg/ml", "result": 0}, {"measurement": "Structural aberrations, Chromatid type, ctb", "setting": "[2]; S9 (−), 12.5 μg/ml", "result": 1}, {"measurement": "Structural aberrations, Chromatid type, cte", "setting": "[2]; S9 (−), 12.5 μg/ml", "result": 1}, {"measurement": "Structural aberrations, Chromosome type, csb", "setting": "[2]; S9 (−), 12.5 μg/ml", "result": 0}, {"measurement": "Structural aberrations, Chromosome type, cse", "setting": "[2]; S9 (−), 12.5 μg/ml", "result": 0}, {"measurement": "Structural aberrations, Others", "setting": "[2]; S9 (−), 12.5 μg/ml", "result": 0}, {"measurement": "Growth index", "setting": "[2]; S9 (−), 25 μg/ml", "result": 84, "unit": "%"}, {"measurement": "Total frequency (+) Gap", "setting": "[2]; S9 (−), 25 μg/ml", "result": 2, "unit": "%"}, {"measurement": "Total frequency (−) Gap", "setting": "[2]; S9 (−), 25 μg/ml", "result": 1, "unit": "%"}, {"measurement": "Gap", "setting": "[2]; S9 (−), 25 μg/ml", "result": 2}]}]}
